Activity calls are given as the source filed them. No cut-off for these calls is given here.
Assays:
[1] = target: Replicase polyprotein 1ab (Severe acute respiratory syndrome coronavirus 2) (UniProt P0DTD1); assay: Inhibition of SARS-CoV-2 main protease using Mca-AVLQSGFRK(Dnp)K as substrate at 40 uM preincubated with enzyme for 10 mins followed by substrate addition and measured every 30 secs for 10 mins by fluorescence based analysis; settings: time 20.0 min
[2] = target: T1, Replicase polyprotein 1ab (Severe acute respiratory syndrome coronavirus 2, UniProt P0DTD1); assay: Inhibition of SARS-CoV-2 main protease using Mca-AVLQSGFRK(Dnp)K as substrate preincubated with enzyme for 10 mins followed by substrate addition and measured every 30 secs for 10 mins by fluorescence based analysis
[3] = target: T1, Replicase polyprotein 1ab; assay: Inhibition of SARS-CoV-2 RdRp
[4] = target: Replicase polyprotein 1ab (Severe acute respiratory syndrome coronavirus 2) (UniProt P0DTD1); assay: Irreversible inhibition of SARS-CoV-2 main protease by fast dilution experiment based analysis

O=C(Cn1sc2cc(F)ccc2c1=O)NCCc1ccccc1
inhibition [1]: 100%
IC50 [2]: 0.388 µM

O=C(Cn1c(=O)c2ccc(F)cc2[s+]1[O-])Nc1ccccc1 (stereo unspecified)
inhibition [1]: 23.5%

O=C(Cn1sc2c(F)cccc2c1=O)Nc1ccccc1
inhibition [1]: 99.5%
IC50 [2]: 0.328 µM

O=C(Cn1sc2cc(F)ccc2c1=O)Nc1ccccc1
inhibition [1]: 102%
IC50 [2]: 0.19 µM
IC50 [3]: 6.4 µM

O=C(Cn1oc2cc(F)ccc2c1=O)Nc1ccccc1
inhibition [1]: 7%

COc1cccc2c(=O)n(CC(=O)Nc3ccccc3)sc12
inhibition [1]: -6.8%

O=C(Cn1sc2cc(F)ccc2c1=O)Nc1ccccc1Cl
inhibition [1]: 94%
IC50 [2]: 0.19 µM

COc1ccccc1NC(=O)Cn1sc2cc(F)ccc2c1=O
inhibition [1]: 99.2%
IC50 [2]: 0.18 µM

O=C(Cn1[nH]c2cc(F)ccc2c1=O)Nc1ccccc1
inhibition [1]: 26.3%

O=C(Cn1sc2cccc(C(F)(F)F)c2c1=O)Nc1ccccc1
inhibition [1]: 99.7%
IC50 [2]: 0.224 µM

O=C(O)Cn1sc2cc(F)ccc2c1=O
inhibition [1]: 98.4%
IC50 [2]: 1.57 µM

COc1ccc2c(=O)n(CC(=O)Nc3ccccc3)sc2c1
inhibition [1]: 99.7%
IC50 [2]: 0.287 µM

O=C(CN1C(=O)c2ccc(F)cc2S1(=O)=O)Nc1ccccc1
inhibition [1]: 18.3%

O=C(Cn1sc2c(C(F)(F)F)cccc2c1=O)Nc1ccccc1
inhibition [1]: -7.6%

CC(C)(C)OC(=O)Cn1sc2cc(F)ccc2c1=O
inhibition [1]: 104%
IC50 [2]: 0.22 µM

O=C(Cn1sc2cc(F)ccc2c1=O)Nc1ccc(C(F)(F)F)cc1
inhibition [1]: 100%
IC50 [2]: 0.21 µM

COc1cc(NC(=O)Cn2sc3cc(F)ccc3c2=O)cc(OC)c1
inhibition [1]: 96.7%
IC50 [2]: 0.12 µM

COc1cccc(NC(=O)Cn2sc3cc(F)ccc3c2=O)c1
inhibition [1]: 101%
IC50 [2]: 0.15 µM

COc1ccc(NC(=O)Cn2sc3cc(F)ccc3c2=O)cc1
inhibition [1]: 99.3%
IC50 [2]: 0.3 µM

O=C(Cn1sc2cc(F)ccc2c1=O)Nc1ccccc1C(F)(F)F
inhibition [1]: 105%
IC50 [2]: 0.335 µM

O=C(Cn1sc2ccc(C(F)(F)F)cc2c1=O)Nc1ccccc1
inhibition [1]: 99.7%
IC50 [2]: 0.393 µM

Nc1cccc2sn(CC(=O)Nc3ccccc3)c(=O)c12
inhibition [1]: 99.4%
IC50 [2]: 1.77 µM

CCNC(=O)Cn1sc2cc(F)ccc2c1=O
inhibition [1]: 102%
IC50 [2]: 0.38 µM

Nc1cccc2c(=O)n(CC(=O)Nc3ccccc3)sc12
inhibition [1]: 58.8%
IC50 [2]: 11 µM

Nc1ccc2sn(CC(=O)Nc3ccccc3)c(=O)c2c1
inhibition [1]: 99.8%
IC50 [2]: 0.416 µM

O=C(Cn1sc2ccccc2c1=O)Nc1ccccc1
inhibition [1]: 99.7%
IC50 [2]: 0.165 µM

O=C(Cn1sc2cc(F)ccc2c1=O)Nc1cccc(Cl)c1
inhibition [1]: 95.5%
IC50 [2]: 0.14 µM

O=c1c2ccc(F)cc2sn1CCCc1ccccc1
inhibition [1]: 102%
IC50 [2]: 0.54 µM

O=C(Cn1sc2cc(C(F)(F)F)ccc2c1=O)Nc1ccccc1
inhibition [1]: 100%
IC50 [2]: 0.524 µM

COc1cccc2sn(CC(=O)Nc3ccccc3)c(=O)c12
inhibition [1]: 99.6%
IC50 [2]: 0.334 µM

O=C(Cn1sc2cc(F)ccc2c1=O)Nc1cc(Cl)cc(Cl)c1
inhibition [1]: 108%
IC50 [2]: 0.19 µM

O=C(Cn1sc2cc(F)ccc2c1=O)NC1CCCC1
inhibition [1]: 95.5%
IC50 [2]: 0.4 µM

O=C(Cn1sc2cc(F)ccc2c1=O)NC1CCCCC1
inhibition [1]: 97.7%
IC50 [2]: 0.16 µM
IC50 [3]: 7.9 µM

CC(=O)NCn1sc2cc(F)ccc2c1=O
inhibition [1]: 102%
IC50 [2]: 0.253 µM

COc1ccc2sn(CC(=O)Nc3ccccc3)c(=O)c2c1
inhibition [1]: 99.7%
IC50 [2]: 0.153 µM

O=C(Cn1sc2cc(F)ccc2c1=O)NCc1ccccc1
inhibition [1]: 104%
IC50 [2]: 0.23 µM

Nc1ccc2c(=O)n(CC(=O)Nc3ccccc3)sc2c1
inhibition [1]: 99.7%
IC50 [2]: 0.443 µM

O=C(Nc1ccccc1)n1sc2cc(F)ccc2c1=O
inhibition [1]: 102%
IC50 [2]: 0.68 µM
IC50 [3]: 15.3 µM

CC(C)(C)c1ccc(NC(=O)Cn2sc3cc(F)ccc3c2=O)cc1
inhibition [1]: 99.9%
IC50 [2]: 0.31 µM

O=C(Cn1sc2cc(F)ccc2c1=O)Nc1ccc(Cl)cc1
inhibition [1]: 95.7%
IC50 [2]: 0.15 µM

O=c1[nH]sc2cc(F)ccc12
inhibition [1]: 106%
IC50 [2]: 2.29 µM

O=C(Cn1sc2cc(F)ccc2c1=O)Nc1cccc(C(F)(F)F)c1
inhibition [1]: 98.9%
IC50 [2]: 0.25 µM

O=C(Cn1sc2cccc(F)c2c1=O)Nc1ccccc1
inhibition [4]: Active
inhibition [1]: 99.5%
IC50 [2]: 0.117 µM

O=C(Cn1sc2ccc(F)cc2c1=O)Nc1ccccc1
inhibition [1]: 99.7%
IC50 [2]: 0.287 µM

From ChEMBL document CHEMBL5143559, “Discovery of highly potent SARS-CoV-2 Mpro inhibitors based on benzoisothiazolone scaffold” (Bioorg Med Chem Lett, 2022)
